{
  "source": "patent US4795751A",
  "about": "“5-substituted-6,8-difluoroquinolines useful as antibacterial agents” (Dainippon Pharmaceutical Co., Ltd., priority 1985, dated 1989)",
  "key": {"[1]": {"system": "Staphylococcus aureus 50774", "test": "In vivo efficacy against systemic infections in mice", "parameters": "species or system Staphylococcus aureus; male mice (ddY-S)", "settings": "Staphylococcus aureus, 50774, 336 h, oral, intravenous infection 5×10^8 cells, twice, immediately and 6 h after infection, 14 days, calculated for free base, read-out: median effective dose (ED50)", "protocol": "(§1) Compounds were each dissolved in deionized water. Each of the solutions was orally administered to mice infected with each of the test organisms under the conditions shown hereinbelow, and the median effective dose (ED50) was calculated by probit analysis. The numerals in the table show ED50 (mg/kg) value, calculated for free base.\n(§2) Mice: Male mice (ddY-S) weighing about 20 g\nStaphylococcus aureus 50774\nIntravenous infection with 5×10^8 cells per mouse suspended in saline.\n(§3) Four times, immediately, 6, 24 and 30 hours after infection in case of Streptococcus pneumoniae 1 Neufeld. Twice, immediately and 6 hours after infection in case of other organisms.\n(§4) For 14 days in case of Staphylococcus aureus 50774 and Streptocuccus pneumoniae 1 Neufeld. For 7 days in case of other organisms."}, "M. bovis P-7101": {"system": "M. bovis P-7101", "test": "microbe, parasite or virus in culture", "type": "cell-based", "settings": "Mycobacterium tuberculosis variant bovis, P7101, 20 h, read-out: minimum inhibitory concentration (MIC)"}, "[2]": {"system": "Pseudomonas aeruginosa 12", "test": "In vivo efficacy against systemic infections in mice", "parameters": "species or system Pseudomonas aeruginosa; male mice (ddY-S)", "settings": "Pseudomonas aeruginosa, 12, 168 h, oral, intraperitoneal infection about 5×10^3 cells, 4% mucin, twice, immediately and 6 h after infection, 7 days, calculated for free base, read-out: median effective dose (ED50)", "protocol": "as §1, §2\nPseudomonas aeruginosa 12\nIntraperitoneal infection with about 5×10^3 cells per mouse suspended in tryptosoy broth with 4% mucin.\nas §3, §4"}, "Campylobacter jejuni 77": {"system": "Campylobacter jejuni 77", "test": "Antibacterial activity against Campylobacter jejuni, twofold agar-dilution method", "type": "cell-based", "settings": "strain 77, blood-containing Mueller-Hinton agar, 48 h, 37° C. microaerobically, calculated for free base, read-out: minimum inhibitory concentration (MIC)", "protocol": "(§5) The numbers in the table show minimum inhibitory concentrations (MIC) (μg/ml), calculated for free base. The minimum inhibitory concentration was determined by the twofold agar-dilution method using blood-containing Mueller-Hinton agar. One loopful of a culture of test organisms in Mueller-Hinton broth was inoculated onto 10-ml drug-containing agar layer in petri dishes. Bacterial growth was observed after 48-hour incubation at 37° C. microaerobically. The MIC was defined as the lowest drug concentration which prevented visible bacterial growth."}, "Campylobacter jejuni 12": {"system": "Campylobacter jejuni 12", "test": "Antibacterial activity against Campylobacter jejuni, twofold agar-dilution method", "type": "cell-based", "settings": "strain 12, blood-containing Mueller-Hinton agar, 48 h, 37° C. microaerobically, calculated for free base, read-out: minimum inhibitory concentration (MIC)", "protocol": "as §5"}, "Campylobacter jejuni 170": {"system": "Campylobacter jejuni 170", "test": "Antibacterial activity against Campylobacter jejuni, twofold agar-dilution method", "type": "cell-based", "settings": "strain 170, blood-containing Mueller-Hinton agar, 48 h, 37° C. microaerobically, calculated for free base, read-out: minimum inhibitory concentration (MIC)", "protocol": "as §5"}, "[3]": {"system": "Campylobacter jejuni 19807", "test": "Antibacterial activity against Campylobacter jejuni, twofold agar-dilution method", "type": "cell-based", "settings": "strain 19807, blood-containing Mueller-Hinton agar, 48 h, 37° C. microaerobically, calculated for free base, read-out: minimum inhibitory concentration (MIC)", "protocol": "as §5"}, "Campylobacter jejuni 20": {"system": "Campylobacter jejuni 20", "test": "Antibacterial activity against Campylobacter jejuni, twofold agar-dilution method", "type": "cell-based", "settings": "strain 20, blood-containing Mueller-Hinton agar, 48 h, 37° C. microaerobically, calculated for free base, read-out: minimum inhibitory concentration (MIC)", "protocol": "as §5"}, "[4]": {"system": "Campylobacter jejuni A-24-2", "test": "Antibacterial activity against Campylobacter jejuni, twofold agar-dilution method", "type": "cell-based", "settings": "A242, strain A-24-2, blood-containing Mueller-Hinton agar, 48 h, 37° C. microaerobically, calculated for free base, read-out: minimum inhibitory concentration (MIC)", "protocol": "as §5"}, "[5]": {"system": "Campylobacter jejuni 19806", "test": "Antibacterial activity against Campylobacter jejuni, twofold agar-dilution method", "type": "cell-based", "settings": "strain 19806, blood-containing Mueller-Hinton agar, 48 h, 37° C. microaerobically, calculated for free base, read-out: minimum inhibitory concentration (MIC)", "protocol": "as §5"}, "[6]": {"system": "Campylobacter jejuni 10812", "test": "Antibacterial activity against Campylobacter jejuni, twofold agar-dilution method", "type": "cell-based", "settings": "strain 10812, blood-containing Mueller-Hinton agar, 48 h, 37° C. microaerobically, calculated for free base, read-out: minimum inhibitory concentration (MIC)", "protocol": "as §5"}, "[7]": {"system": "Campylobacter jejuni A-11-3", "test": "Antibacterial activity against Campylobacter jejuni, twofold agar-dilution method", "type": "cell-based", "settings": "A113, strain A-11-3, blood-containing Mueller-Hinton agar, 48 h, 37° C. microaerobically, calculated for free base, read-out: minimum inhibitory concentration (MIC)", "protocol": "as §5"}, "[8]": {"system": "Campylobacter jejuni 19804", "test": "Antibacterial activity against Campylobacter jejuni, twofold agar-dilution method", "type": "cell-based", "settings": "strain 19804, blood-containing Mueller-Hinton agar, 48 h, 37° C. microaerobically, calculated for free base, read-out: minimum inhibitory concentration (MIC)", "protocol": "as §5"}, "[9]": {"system": "Campylobacter jejuni 19805", "test": "Antibacterial activity against Campylobacter jejuni, twofold agar-dilution method", "type": "cell-based", "settings": "strain 19805, blood-containing Mueller-Hinton agar, 48 h, 37° C. microaerobically, calculated for free base, read-out: minimum inhibitory concentration (MIC)", "protocol": "as §5"}, "Campylobacter jejuni 10": {"system": "Campylobacter jejuni 10", "test": "Antibacterial activity against Campylobacter jejuni, twofold agar-dilution method", "type": "cell-based", "settings": "strain 10, blood-containing Mueller-Hinton agar, 48 h, 37° C. microaerobically, calculated for free base, read-out: minimum inhibitory concentration (MIC)", "protocol": "as §5"}, "[10]": {"system": "Campylobacter jejuni A-19-3", "test": "Antibacterial activity against Campylobacter jejuni, twofold agar-dilution method", "type": "cell-based", "settings": "A193, strain A-19-3, blood-containing Mueller-Hinton agar, 48 h, 37° C. microaerobically, calculated for free base, read-out: minimum inhibitory concentration (MIC)", "protocol": "as §5"}, "M. buccale CH-20247": {"system": "M. buccale CH-20247", "test": "Anti-Mycoplasma activity, twofold agar-dilution method", "type": "cell-based", "settings": "48 h, Chanock agar, 37° C., 2 days anaerobically, calculated for free base, read-out: minimum inhibitory concentration (MIC)", "protocol": "(§6) The numbers in the table show minimum inhibitory concentrations (MIC) (μg/ml), calculated for free base. The minimum inhibitory concentration was determined by the twofold agar-dilution method using Chanock agar. Three μl of a culture of test organisms in Chanock broth was inoculated onto 10-ml drug-containing agar layers in petri dishes. Growth of Mycoplasma was observed after incubation at 37° C. under the conditions shown hereinbelow. The MIC was defined as the lowest drug concentration which prevented growth of Mycoplasma microscopically."}, "M. fermentans PG-18": {"system": "M. fermentans PG-18", "test": "Anti-Mycoplasma activity, twofold agar-dilution method", "type": "cell-based", "settings": "Mycoplasmopsis fermentans, PG18, 48 h, Chanock agar, 37° C., 2 days anaerobically, calculated for free base, read-out: minimum inhibitory concentration (MIC)", "protocol": "as §6"}, "M. hominis PG-21": {"system": "M. hominis PG-21", "test": "Anti-Mycoplasma activity, twofold agar-dilution method", "type": "cell-based", "settings": "Metamycoplasma hominis, PG21, 48 h, Chanock agar, 37° C., 2 days anaerobically, calculated for free base, read-out: minimum inhibitory concentration (MIC)", "protocol": "as §6"}, "M. salivarium": {"system": "M. salivarium", "test": "Anti-Mycoplasma activity, twofold agar-dilution method", "type": "cell-based", "settings": "48 h, read-out: minimum inhibitory concentration (MIC)", "protocol": "as §6"}},
  "data": [
    {"compound": "CC1CN(c2c(F)c(N)c3c(=O)c(C(=O)O)cn(C4CC4)c3c2F)CCN1", "note": "(centres unmarked) [Compound 1, 5-Amino-1-cyclopropyl-6,8-difluoro-7-(3-methyl-1-piperazinyl)-1,4-dihydro-4-oxoquinoline-3-carboxylic acid]", "values": [
      {"measurement": "ED50", "setting": "[1]", "value": 1.35, "unit": "mg/kg"},
      {"measurement": "MIC", "setting": "M. bovis P-7101", "value": 0.2, "unit": "µg/mL"},
      {"measurement": "ED50", "setting": "[2]", "value": 1.11, "unit": "mg/kg"},
      {"measurement": "MIC", "setting": "Campylobacter jejuni 77", "value": 0.0125, "unit": "µg/mL"},
      {"measurement": "MIC", "setting": "Campylobacter jejuni 12", "value": 0.0125, "unit": "µg/mL"},
      {"measurement": "MIC", "setting": "Campylobacter jejuni 170", "value": 0.0125, "unit": "µg/mL"},
      {"measurement": "MIC", "setting": "[3]", "value": 0.0125, "unit": "µg/mL"},
      {"measurement": "MIC", "setting": "Campylobacter jejuni 20", "value": 0.0063, "unit": "µg/mL"},
      {"measurement": "MIC", "setting": "[4]", "value": 0.05, "unit": "µg/mL"},
      {"measurement": "MIC", "setting": "[5]", "value": 0.0125, "unit": "µg/mL"},
      {"measurement": "MIC", "setting": "[6]", "value": 0.025, "unit": "µg/mL"},
      {"measurement": "MIC", "setting": "[7]", "value": 0.05, "unit": "µg/mL"},
      {"measurement": "MIC", "setting": "[8]", "value": 0.0125, "unit": "µg/mL"},
      {"measurement": "MIC", "setting": "[9]", "value": 0.0125, "unit": "µg/mL"},
      {"measurement": "MIC", "setting": "Campylobacter jejuni 10", "value": 0.0125, "unit": "µg/mL"},
      {"measurement": "MIC", "setting": "[10]", "value": 0.05, "unit": "µg/mL"},
      {"measurement": "MIC", "setting": "M. buccale CH-20247", "value": 0.0125, "unit": "µg/mL"},
      {"measurement": "MIC", "setting": "M. fermentans PG-18", "value": 0.0063, "unit": "µg/mL"},
      {"measurement": "MIC", "setting": "M. hominis PG-21", "value": 0.05, "unit": "µg/mL"},
      {"measurement": "MIC", "setting": "M. salivarium", "value": 0.2, "unit": "µg/mL"}
    ]}
  ]
}
